Results: patent US20130189775A1, “MODULATION OF THE […] RECEPTOR mTOR TO INHIBIT STEM CELL DIFFERENTIATION INTO NEURONS” (priority 2011, published 2013)
Entries after “also recorded” stand apart in the source; their conditions may differ.

How the values were obtained:
ReN cells [1] = assay: Epic label-free RWG biosensor receptor assay on ReN cells; type: cell-based, human; settings: Epic single step assay; for agonist response profile, undifferentiated versus differentiated cells: ReN cells (FIG. 6); for agonist response of differentiated cells: ReN cells differentiated without rapamycin (FIG. 6)
Method: The label-free biosensor assays for various receptors was done in the presence of various concentrations of a typical agonist using Corning Epic® system. Assay on undifferentiated cells was carried out simultaneously. […] Undifferentiated receptor profiles were similar to rapamycin treated cells indicating the blockage of differentiation by rapamycin.
ReN Cells were treated with or without rapamycin (5 μM) for 6 days. Cells were washed with HBSS and loaded onto Epic instrument for a single step assay with various receptor agonists. Undifferentiated cells grown for 3-4 days (till confluency) and run of Epic instrument as described above.

ReN cells [2] = assay: ReN cell neural progenitor differentiation, phase contrast microscopy; type: cell-based, human; settings: for block of neural progenitor differentiation by PI3-K / Akt inhibitors: ReN cells differentiated in presence of inhibitor for 6-7 days (FIG. 3, FIG. 4)
Method: To evaluate the role of kinases in the differentiation of neural stem cells, we added kinase inhibitors from the BIOMOL kinase inhibitor library to the culture during the differentiation process. Kinase inhibitors were replaced on alternate days during media change. Cultures were grown for 6-7 days. We used phase contrast imaging and immunocytochemistry to understand the difference in the morphological differentiation.
General procedure for neuronal stem cell culture on laminin surface: • 96 well CellBind™ treated plates were washed with 70% ethanol and kept ON in the hood • Next day morning, plates were washed twice with 1×PBS • Laminin (50 μl, 20 μg/ml) was added to the wells and incubated 37° C. incubator for 5 hrs. • Wells were washed with 1×PBS after incubation. • Cells were seeded at 20,000 cells/well • For undifferentiated cells, the cultures were grown for 9 days. Media was changed everyday with growth factor supplementation • For differentiated cells, the growth factor deprived media was added after next day after seeding and cells were grown further for 6 days with media changes every other day. • Rapamycin and other inhibitors were added to the cells when the media was changed to growth factor independent media. Media was maintained throughout the study and changed on alternate days. ReNcell NSC Maintenance Medium contains DMEM/F12 w/o HEPES, w/L-Glutamine, human serum albumin, human transferrin, putrescine dihydrochloride, human recombinant insulin, L-thyroxine, Tri-iodo-thyronine, progesterone, sodium selenite, heparin, corticosterone. […] The growth factors used were EGF (Epidermal growth factor) and bFGF (Basic fibroblast growth factor).
Kinase inhibitors (1 μM) was added to the cells next day after seeding and replenished during media changes on alternate days. Phase contrast microscopy was done after 6 days as described below. […]
After the experiment, the cells were fixed with 4% paraformaldehyde and washed thrice with 1×PBS. Cells were assessed using a Ziess Axiovert 200M inverted Brightfield/fluorescence microscope.

[3] = test system: quiescent human epidermoid carcinoma A431; assay: EGF-induced DMR response of quiescent A431 cells (optical biosensor); type: cell-based
Excerpt: The DMR signal mediated through a particular target is an integrated and quantifiable signal that is a sum of contributions from mass redistribution occurring at different distances away from the sensor surface. Because of the complex nature of cell signaling, the activation of distinct cell signaling mediated through different targets might result in similar overall DMR signal. However, because of the participation of unique sets of cellular targets for a specific signaling event, the modulation profiles mediated by a predetermined set of selective modulators might provide a means to classify the specificity of cell signaling being activated by a particular stimulus. Therefore, the DMR response can be treated as a unique and perfect readout for systems biology studies of living cells. […] The effect of various known inhibitors/drugs on the DMR response of quiescent A431 cells linked the cell response to mainly the Ras/mitogen-activated protein (MAP) kinase pathway, which primarily proceeds through MEK.
Another biosensor output parameter can be the kinetics of any of the aspects of data output. For example, the rate at the completion of the phase transitions. For example, how fast are the phase transitions completed or how long does it take to complete data output. Another example of the kinetics that can be measured would be the length of time for which an overall phase of the data output takes. Another example is the total duration of time of one or both of the P- and N-DMR phases. Another example is the rate or time in which it takes to acquire the total amplitudes of one or both of the P- and N-DMR phases. Another example can be the transition time τ from the P- to N-DMR phase. The kinetics of both P-DMR and N-DMR events or phases can also be measured. For example, stimulation of human quiescent human epidermoid carcinoma A431 with epidermal growth factor (EGF) results in a dynamic response consisting of at least three phases. […]

Compound: NCCc1ccc(O)c(O)c1 [dopamine]
- agonist response profile, undifferentiated versus differentiated cells (ReN cells [1]): different profiles

Compound: Nc1ncnc2c1ncn2[C@@H]1O[C@H](CO)[C@@H](O)[C@H]1O [Adenosine]
- agonist response profile, undifferentiated versus differentiated cells (ReN cells [1]): different profiles

Compound: NCCCC(=O)O [GABA]
- agonist response of differentiated cells (ReN cells [1]): did not responds to these stimuli

Compound: O=c1[nH]c2ccccc2n1C1CCN(Cc2ccc(-c3[nH]c4cc5ncnc5cc4nc3-c3ccccc3)cc2)CC1 [A6730]
- block of neural progenitor differentiation by PI3-K / Akt inhibitors (ReN cells [2]): did not block the neural progenitor differentiation

Compound: CNC[C@H](O)c1ccc(O)c(O)c1 [epinephrine]
- agonist response profile, undifferentiated versus differentiated cells (ReN cells [1]): different profiles

Compound: C[C@@H](N)[C@H]1CC[C@H](C(=O)Nc2ccncc2)CC1 [Y27632]
- block of neural progenitor cell differentiation by ROCK inhibitor (ReN cells [2]; Y27632 1 μM, 6-7 days (FIG. 5)): had no effect on the differentiation process; also recorded: did not block neural progenitor cell differentiation

Compound: O=C(O)c1ccc2nc(-c3ccccc3)c(-c3ccccc3)nc2c1 [BML-257]
- block of neural progenitor differentiation by PI3-K / Akt inhibitors (ReN cells [2]): did not block the neural progenitor differentiation

Compound: NCCc1c[nH]c2ccc(O)cc12 [serotonin]
- agonist response of differentiated cells (ReN cells [1]): did not responds to these stimuli

Compound: EGF: epidermal growth factor
- EC50 ([3]; EGF stimulation, read-out: EC50 from amplitudes of the N-DMR signals): ~1.45 nM
- Kd ([3]; EGF stimulation, read-out: Kd from one-phase decay constant κ of the N-DMR signal): 5.76 nM

Compound: COc1cc2ncnc(Nc3cccc(Cl)c3)c2cc1OC [AG1478]
- suppression of EGF-induced DMR response [3]: fully suppressed
